# Experimental data: US20230339886A1 (University of Florida Research Foundation, Incorporated, priority 2020, published 2023)
# Target: T1, REV-ERBα LBD (human; residues 281-614 Δ324-422) (Homo sapiens, UniProt P20393, DEL324-422)
# T1 construct: 6×Histag-REV-ERBα LBD (human; residues 281-614 Δ324-422); made in house; host or cells: Escherichia coli
# Assay: TR-FRET corepressor interaction assay (REV-ERBα LBD, FITC-SMRT peptide)
# Type: biochemical
# Conditions: FITC-SMRT peptide, read-out: REVERBα agonism (EC50 class, FRET assay)
# In short: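 Compound serial dilutions (in DMSO, triplicate) incubated 2 h at 4 °C; Tb donor excited at 340 nm, emission read at 495 nm and FITC acceptor at 520 nm. TR-FRET ratio (520/495 nm) plotted against ligand concentration and fitted to a sigmoidal dose-response curve.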
# T1 sequence (P20393 with tags, fused parts or gaps DEL324-422): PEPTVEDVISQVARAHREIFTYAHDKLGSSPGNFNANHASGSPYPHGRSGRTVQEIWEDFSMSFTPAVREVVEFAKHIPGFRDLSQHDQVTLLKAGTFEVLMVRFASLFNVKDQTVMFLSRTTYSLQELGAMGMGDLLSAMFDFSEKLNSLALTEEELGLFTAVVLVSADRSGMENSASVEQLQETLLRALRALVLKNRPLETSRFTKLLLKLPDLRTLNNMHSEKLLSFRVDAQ
# T1 sequence (Q9Y618 2335-2356 partner limits assumed): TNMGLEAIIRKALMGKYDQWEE
row,Structure (SMILES),EC50 [µM]
1,"Cc1cn[nH]c1-c1cc2c(cc1F)c([C@H](NS(=O)(=O)C1CC1)C(F)(F)F)cn2CC(C)C [Example 456, (S)—N-(2,2,2-trifluoro-1-(5-fluoro-1-isobutyl-6-(4-methyl-1H-pyrazol-5-yl)-1H-indol-3-yl)ethyl)cyclopropanesulfonamide]",0.5 to 3
2,"CC(C)Cn1cc([C@H](NS(=O)(=O)C2CC2)C(F)(F)F)c2cc(F)c(-c3cscn3)cc21 [Example 457, N-[(1S)-2,2,2-trifluoro-1-(5-fluoro-1-isobutyl-6-thiazol-4-yl-indol-3-yl)ethyl]cyclopropanesulfonamide]",0.5 to 3
3,"CC(C)(C)Cn1cc([C@H](NS(=O)(=O)C2CC2)C(F)(F)F)c2cc(C(F)(F)F)c(-c3ccncc3)cc21 [Example 458, (S)—N-(2,2,2-trifluoro-1-(1-neopentyl-6-(pyridin-4-yl)-5-(trifluoromethyl)-1H-indol-3-yl)ethyl)cyclopropanesulfonamide]",0.5 to 3
4,"CC(C)(C)Cn1cc([C@H](NS(=O)(=O)C2CCOC2)C(F)(F)F)c2cc(F)c(-c3ccccc3C(F)(F)F)cc21 (stereo partly drawn) [Example 461, N—((S)-2,2,2-trifluoro-1-(5-fluoro-1-neopentyl-6-(2-(trifluoromethyl)phenyl)-1H-indol-3-yl)ethyl)tetrahydrofuran-3-sulfonamide]",> 3
5,"CC(C)(C)Cn1cc([C@H](NS(=O)(=O)C2CC2)C(F)(F)F)c2cc(F)c(-c3cscn3)cc21 [Example 465, N-[(1S)-1-[1-(2,2-dimethylpropyl)-5-fluoro-6-thiazol-4-yl-indol-3-yl]-2,2,2-trifluoro-ethyl]cyclopropanesulfonamide]",0.5 to 3
6,"CC(C)(C)Cn1cc([C@H](NS(=O)(=O)C2CC2)C(F)(F)F)c2ccc(-c3ncccc3Cl)cc21 [Example 467, (S)—N-(1-(6-(3-chloropyridin-2-yl)-1-neopentyl-1H-indol-3-yl)-2,2,2-trifluoroethyl)cyclopropanesulfonamide]",0.5 to 3
7,"CC(C)(C)Cn1cc([C@H](NS(=O)(=O)C2CC2)C(F)(F)F)c2ccc(-c3ccccn3)cc21 [Example 469, (S)—N-(2,2,2-trifluoro-1-(1-neopentyl-6-(pyridin-2-yl)-1H-indol-3-yl)ethyl)cyclopropanesulfonamide]",0.5 to 3
8,"CN(C)C(=O)c1ccccc1-c1ccc2c([C@H](NS(=O)(=O)C3CC3)C(F)(F)F)cn(CC(C)(C)C)c2c1 [Example 471, (S)-2-(3-(1-(cyclopropanesulfonamido)-2,2,2-trifluoroethyl)-1-neopentyl-1H-indol-6-yl)-N,N-dimethylbenzamide]",0.5 to 3
9,"CC(C)(C)Cn1cc([C@H](NS(=O)(=O)C2CC2)C(F)(F)F)c2ccc(-c3cccc(C#N)c3F)cc21 [Example 473, (S)—N-(1-(6-(3-cyano-2-fluorophenyl)-1-neopentyl-1H-indol-3-yl)-2,2,2-trifluoroethyl)cyclopropanesulfonamide]",0.5 to 3
10,"CC(C)(O)Cn1cc([C@H](NS(=O)(=O)C2CC2)C(F)(F)F)c2cc(F)c(-c3ccccc3C(F)(F)F)cc21 [Example 474, N-[(1S)-2,2,2-trifluoro-1-[5-fluoro-1-(2-hydroxy-2-methyl-propyl)-6-[2-(trifluoromethyl)phenyl]indol-3-yl]ethyl]cyclopropanesulfonamide]",0.5 to 3
11,"N#CC1(Cn2cc([C@H](NS(=O)(=O)C3CC3)C(F)(F)F)c3cc(F)c(-c4ccccc4C(F)(F)F)cc32)CC1 [Example 476, N-[(1S)-1-[1-[(1-cyanocyclopropyl)methyl]-5-fluoro-6-[2-(trifluoromethyl)phenyl]indol-3-yl]-2,2,2-trifluoro-ethyl]cyclopropanesulfonamide]",0.5 to 3
12,"CC(C)(C)Cn1cc([C@H](NS(=O)(=O)C2CC2)C(F)(F)F)c2cc(F)c(-c3cccc4c3CCCC4)cc21 [Example 477, N-[(1S)-1-[1-(2,2-dimethylpropyl)-5-fluoro-6-tetralin-5-yl-indol-3-yl]-2,2,2-trifluoro-ethyl]cyclopropanesulfonamide]",0.5 to 3
13,"CC(C)(O)Cn1cc([C@H](NS(=O)(=O)C2CCC2)C(F)(F)F)c2cc(F)c(-c3ccccc3C(F)(F)F)cc21 [Example 478, N-[(1S)-2,2,2-trifluoro-1-[5-fluoro-1-(2-hydroxy-2-methyl-propyl)-6-[2-(trifluoromethyl)phenyl]indol-3-yl]ethyl]cyclobutanesulfonamide]",0.5 to 3
14,"CC(C)(C)C(=O)n1cc([C@H](NS(=O)(=O)C2CC2)C(F)(F)F)c2ccc(-c3ccccc3C(F)(F)F)cc21 [Example 480, (S)—N-(2,2,2-trifluoro-1-(1-pivaloyl-6-(2-(trifluoromethyl)phenyl)-1H-indol-3-yl)ethyl)cyclopropanesulfonamide]",0.5 to 3
15,"CC(C)(C)Cn1cc(CCNS(=O)(=O)C2CC2)c2ccc(-c3ccc(C(F)(F)F)cc3C(F)(F)F)cc21 [Example 481, N-(2-(6-(2,4-bis(trifluoromethyl)phenyl)-1-neopentyl-1H-indol-3-yl)ethyl)cyclopropanesulfonamide]",0.5 to 3

# The remaining lines, values ahead:
row,EC50 [µM],Structure (SMILES)
1,< 0.5,"CC(C)Cn1cc([C@H](NS(=O)(=O)C2CC2)C(F)(F)F)c2cc(F)c(-c3ccnc4c3CCCC4)cc21 [Example 454, N-[(1S)-2,2,2-trifluoro-1-[5-fluoro-1-isobutyl-6-(5,6,7,8-tetrahydroquinolin-4-yl)indol-3-yl]ethyl]cyclopropanesulfonamide]"
2,< 0.5,"CC(C)Cn1cc([C@H](NS(=O)(=O)C2CC2)C(F)(F)F)c2cc(F)c(-c3ccncn3)cc21 [Example 455, (S)—N-(2,2,2-trifluoro-1-(5-fluoro-1-isobutyl-6-(pyrimidin-4-yl)-1H-indol-3-yl)ethyl)cyclopropanesulfonamide]"
3,< 0.5,"CC(C)(C)Cn1cc([C@H](NS(=O)(=O)C2COC2)C(F)(F)F)c2cc(F)c(-c3ccccc3C(F)(F)F)cc21 [Example 459, (S)—N-(2,2,2-trifluoro-1-(5-fluoro-1-neopentyl-6-(2-(trifluoromethyl)phenyl)-1H-indol-3-yl)ethyl)oxetane-3-sulfonamide]"
4,< 0.5,"CC(C)(C)Cn1cc([C@H](NS(=O)(=O)C2CC2)C(F)(F)F)c2ccc(-c3c(F)cccc3C#N)cc21 [Example 460, (S)—N-(1-(6-(2-cyano-6-fluorophenyl)-1-neopentyl-1H-indol-3-yl)-2,2,2-trifluoroethyl)cyclopropanesulfonamide]"
5,< 0.5,"CC(C)(C)Cn1cc([C@H](NS(=O)(=O)C2CC2)C(F)(F)F)c2ccc(-c3ccccc3C#N)cc21 [Example 462, (S)—N-(1-(6-(2-cyanophenyl)-1-neopentyl-1H-indol-3-yl)-2,2,2-trifluoroethyl)cyclopropanesulfonamide]"
6,< 0.5,"Cc1cccc(C(F)(F)F)c1-c1ccc2c([C@H](NS(=O)(=O)C3CC3)C(F)(F)F)cn(CC(C)(C)C)c2c1 [Example 463, (S)—N-(2,2,2-trifluoro-1-(6-(2-methyl-6-(trifluoromethyl)phenyl)-1-neopentyl-1H-indol-3-yl)ethyl)cyclopropanesulfonamide]"
7,< 0.5,"CC(C)(C)Cn1cc([C@H](NS(=O)(=O)C2CC2)C(F)(F)F)c2ccc(-c3c(F)cccc3Cl)cc21 [Example 464, (S)—N-(1-(6-(2-chloro-6-fluorophenyl)-1-neopentyl-1H-indol-3-yl)-2,2,2-trifluoroethyl)cyclopropanesulfonamide]"
8,< 0.5,"CC(C)(C)Cn1cc([C@H](NS(=O)(=O)C2CC2)C(F)(F)F)c2ccc(-c3cccnc3C#N)cc21 [Example 466, (S)—N-(1-(6-(2-cyanopyridin-3-yl)-1-neopentyl-1H-indol-3-yl)-2,2,2-trifluoroethyl)cyclopropanesulfonamide]"
9,< 0.5,"CC(C)(C)Cn1cc([C@H](NS(=O)(=O)C2CC2)C(F)(F)F)c2ccc(-c3ncccc3C#N)cc21 [Example 468, (S)—N-(1-(6-(3-cyanopyridin-2-yl)-1-neopentyl-1H-indol-3-yl)-2,2,2-trifluoroethyl)cyclopropanesulfonamide]"
10,< 0.5,"CC(C)(C)Cn1cc([C@H](NS(=O)(=O)C2CC2)C(F)(F)F)c2ccc(-c3c(Cl)cncc3Cl)cc21 [Example 470, (S)—N-(1-(6-(3,5-dichloropyridin-4-yl)-1-neopentyl-1H-indol-3-yl)-2,2,2-trifluoroethyl)cyclopropanesulfonamide]"
11,< 0.5,"CC(C)(C)Cn1cc([C@H](NS(=O)(=O)C2CC2)C(F)(F)F)c2ccc(-c3ccc(F)cc3C#N)cc21 [Example 472, (S)—N-(1-(6-(2-cyano-4-fluorophenyl)-1-neopentyl-1H-indol-3-yl)-2,2,2-trifluoroethyl)cyclopropanesulfonamide]"
12,< 0.5,"COC(C)(C)Cn1cc([C@H](NS(=O)(=O)C2CC2)C(F)(F)F)c2cc(F)c(-c3ccccc3C(F)(F)F)cc21 [Example 475, N-[(1S)-2,2,2-trifluoro-1-[5-fluoro-1-(2-methoxy-2-methyl-propyl)-6-[2-(trifluoromethyl)phenyl]indol-3-yl]ethyl]cyclopropanesulfonamide]"
13,< 0.5,"CC(C)(C)Cn1cc([C@H](NS(=O)(=O)C2CCC2)C(F)(F)F)c2cc(F)c(-c3cccc4c3CCCC4)cc21 [Example 479, N-[(1S)-1-[1-(2,2-dimethylpropyl)-5-fluoro-6-tetralin-5-yl-indol-3-yl]-2,2,2-trifluoro-ethyl]cyclobutanesulfonamide]"
14,< 0.5,"CC(C)(C)Cn1cc(CCNS(=O)(=O)C2CC2)c2ccc(-c3ccc(Cl)cc3C#N)cc21 [Example 482, N-(2-(6-(4-chloro-2-cyanophenyl)-1-neopentyl-1H-indol-3-yl)ethyl)cyclopropanesulfonamide]"
15,< 0.5,"CC(C)(C)Cn1cc(CCNS(=O)(=O)C2CC2)c2ccc(-c3cc(C(F)(F)F)ccc3C(F)(F)F)cc21 [Example 483, N-(2-(6-(2,5-bis(trifluoromethyl)phenyl)-1-neopentyl-1H-indol-3-yl)ethyl)cyclopropanesulfonamide]"
